Details of experiment [1]: method as in BIOPEP database and Milk Bioactive Peptides Database. Conditions: ref BIOPEP database and Milk Bioactive Peptides Database; cited from earlier work.
For experiment [2], the system named is angiotensin converting enzyme. Particulars: cited from earlier work; for Bioactivity: ACE-inhibition: ref BIOPEP database and Milk Bioactive Peptides Database; for IC50 values against ACE: ref [47],[48],[49].
On the set-up of experiment [3]: method as in PMID 16899668, doi:10.1016/j.foodres.2015.12.007. Conditions: spontaneously hypertensive rats; ref [48],[49]; cited from earlier work.
Experiment [4] deals with yeast α-glucosidase (Saccharomyces cerevisiae, UniProt P53341). Nature of the experiment: α-Glucosidase assay. In kind it is biochemical. Particulars: for inhibition at 1000 µM: read-out: percentage of inhibition of α-glucosidase; for IC50: synthetic peptides, n.a. = not active. As to the method:
α-Glucosidase assay was performed as reported in Bellesia et al., adapted to a microplate reader. The reaction was performed by mixing 66.7 μL of potassium phosphate buffer (67 mmol/L, pH 6.8), 3.3 μL of glutathione 3 mmol/L, 20 μL of different concentrations of water-soluble low-molecular weight peptide extracts, and 5 μL of yeast α-glucosidase 0.2 U/mL. After 20 min of incubation at 37 °C, the reaction was started by the addition of 5 μL of p-nitrophenyl-glucose 5 mmol/L. After a further 20 min of incubation at 37 °C, the reaction was stopped by the addition of 150 μL of Na2CO3 100 mmol/L. The amount of released p-nitrophenol was determined by reading at 405 nm with a microplate reader. Results were expressed as IC50 as reported above.
(§1) Selected peptides were then synthesized (Bio-Fab Research, Rome, Italy) and tested for their inhibitory activity against DPP-IV, α-glucosidase, and α-amylase. The assays were carried out as reported in Section 2.3. The results were expressed as IC50 values.

For experiment [5], the target named is T1, rat intestinal DPP-IV (Rattus norvegicus, UniProt P14740).
T1 construct: 10 μL of rat intestinal DPP-IV (0.1 U/mL in the assay); from tissue; host or cells: rat intestine
Nature of the experiment: Dipeptidyl peptidase IV (DPP-IV) assay. In kind it is biochemical. Particulars: synthetic peptides. The method, then: DPP-IV assay was performed as described in Tagliazucchi et al.. Briefly, in a 96-well plate, 10 μL of rat intestinal DPP-IV (0.1 U/mL in the assay) were mixed with 145 μL of Tris-HCl buffer (pH 7.0; 0.1 mol/L) and 40 μL of different concentrations of water-soluble low-molecular weight peptide extracts. After 20 min of incubation at 37 °C, the reaction was started by the addition of 5 μL of glycine-proline-p-nitroanilide (6.4 mmol/L). The amount of released p-nitroanilide was determined after 20 min of incubation at 37 °C by reading at 405 nm in a microplate reader. Results were expressed as IC50 as reported above.
as §1

Details of experiment [6]: method as in BIOPEP database and Milk Bioactive Peptides Database. Conditions: ref BIOPEP database and Milk Bioactive Peptides Database; cited from earlier work. This is another data set of the same source.
Experiment [7] has as its target T2, porcine pancreatic α-amylase (Sus scrofa, UniProt P00690).
T2 sequence (P00690 16-511): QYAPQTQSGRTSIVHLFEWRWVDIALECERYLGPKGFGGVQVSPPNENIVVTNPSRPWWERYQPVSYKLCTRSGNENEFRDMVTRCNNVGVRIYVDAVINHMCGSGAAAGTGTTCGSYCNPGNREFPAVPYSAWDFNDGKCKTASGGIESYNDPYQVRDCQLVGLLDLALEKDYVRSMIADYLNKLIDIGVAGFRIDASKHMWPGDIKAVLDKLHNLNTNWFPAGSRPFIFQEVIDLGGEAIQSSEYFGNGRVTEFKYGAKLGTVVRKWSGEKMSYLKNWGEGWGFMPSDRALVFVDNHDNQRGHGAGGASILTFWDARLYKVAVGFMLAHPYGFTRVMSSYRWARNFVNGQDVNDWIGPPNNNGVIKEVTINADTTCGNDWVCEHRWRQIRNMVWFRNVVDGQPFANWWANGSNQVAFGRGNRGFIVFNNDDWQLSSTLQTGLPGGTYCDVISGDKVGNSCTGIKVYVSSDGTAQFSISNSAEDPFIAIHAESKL
Nature of the experiment: α-Amylase assay. Type of experiment: biochemical. Particulars: synthetic peptides; n.a. = not active. The method, then:
α-Amylase assay was performed in accordance with McDougall et al. adapted to a microplate reader. For the reaction, 5 μL of 2 U/mL of porcine pancreatic α-amylase (dissolved in sodium phosphate buffer 20 mmol/L pH 6.9 containing 6.7 mmol/L NaCl) were mixed with 45 μL of sodium phosphate buffer or different concentrations of water-soluble low-molecular weight peptide extracts. The mixture was incubated at 37 °C for 20 min before adding 50 μL of 1% starch solution. The reaction was carried out at 37 °C for 10 min and stopped by the addition of dinitrosalicylic acid solution, followed by 15 min boiling in a water bath. After the addition of 450 μL of water, 200 μL of solution was transferred in a 96-well plate and the absorbance was read at 540 nm. Results were expressed as IC50, namely the peptides concentration (expressed in mg/mL) able to inhibit the enzymatic activity by 50%. The IC50 values were calculated by plotting the peptide concentration (base-10 logarithm) as a function of the percentage of enzyme inhibition.
as §1

Experiment [8] relates to Staphylococcus aureus, Streptococcus pyogenes, and Listeria monocytogenes. Further details: method as in PMID 8603791. Conditions: mice; ref [50]; cited from earlier work.
Experiment [9] has as its system DPP-IV. Particulars: cited from earlier work; for Bioactivity: DPP-IV-inhibition: ref BIOPEP database and Milk Bioactive Peptides Database; for IC50: ref [41],[51],[52], read-out: IC50 DPP-IV, previously reported.
On the set-up of experiment [10]: method as in BIOPEP database and Milk Bioactive Peptides Database. Particulars: ref BIOPEP database and Milk Bioactive Peptides Database; cited from earlier work. The source holds these as a separate data set.
Details of experiment [11]: method as in BIOPEP database and Milk Bioactive Peptides Database. Particulars: ref BIOPEP database and Milk Bioactive Peptides Database; cited from earlier work. This is another data set of the same source.
Details of experiment [12]: method as in PMID 27572703, PMID 33337010. Conditions: mild hypertensive subjects; ref [47],[58]; cited from earlier work.
The test system of experiment [13] is α-glucosidase. Conditions: cited from earlier work.

Broadly, the inhibition is the change of the read-out against control, counted positive when it falls. What is called IC50 is the concentration that gives 50% inhibition.

Ends that are not written are not given here. Peptide text beside a SMILES is read from it. Where only a bound is given, the exact number is not on record here.

T1 sequence (P14740 whole entry): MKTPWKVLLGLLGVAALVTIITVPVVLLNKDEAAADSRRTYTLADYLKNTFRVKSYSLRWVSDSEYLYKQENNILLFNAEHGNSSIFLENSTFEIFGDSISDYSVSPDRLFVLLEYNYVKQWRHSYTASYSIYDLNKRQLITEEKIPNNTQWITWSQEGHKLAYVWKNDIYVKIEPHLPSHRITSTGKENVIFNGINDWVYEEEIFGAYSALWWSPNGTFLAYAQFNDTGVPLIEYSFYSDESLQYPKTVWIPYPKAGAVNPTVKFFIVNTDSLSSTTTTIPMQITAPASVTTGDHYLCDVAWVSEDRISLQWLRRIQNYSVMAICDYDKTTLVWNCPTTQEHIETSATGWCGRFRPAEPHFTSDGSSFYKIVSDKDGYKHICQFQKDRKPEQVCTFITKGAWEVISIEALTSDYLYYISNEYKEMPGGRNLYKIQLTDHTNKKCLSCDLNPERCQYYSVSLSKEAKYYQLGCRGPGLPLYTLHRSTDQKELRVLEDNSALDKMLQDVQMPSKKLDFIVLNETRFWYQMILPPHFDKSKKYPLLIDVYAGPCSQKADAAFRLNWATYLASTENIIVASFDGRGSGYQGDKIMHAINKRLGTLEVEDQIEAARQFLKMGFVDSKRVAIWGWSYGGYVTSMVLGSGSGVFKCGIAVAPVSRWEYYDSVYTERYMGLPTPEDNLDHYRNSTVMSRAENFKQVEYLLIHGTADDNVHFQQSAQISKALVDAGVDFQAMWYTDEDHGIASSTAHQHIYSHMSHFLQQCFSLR
Chain of yeast α-glucosidase (P53341 whole entry): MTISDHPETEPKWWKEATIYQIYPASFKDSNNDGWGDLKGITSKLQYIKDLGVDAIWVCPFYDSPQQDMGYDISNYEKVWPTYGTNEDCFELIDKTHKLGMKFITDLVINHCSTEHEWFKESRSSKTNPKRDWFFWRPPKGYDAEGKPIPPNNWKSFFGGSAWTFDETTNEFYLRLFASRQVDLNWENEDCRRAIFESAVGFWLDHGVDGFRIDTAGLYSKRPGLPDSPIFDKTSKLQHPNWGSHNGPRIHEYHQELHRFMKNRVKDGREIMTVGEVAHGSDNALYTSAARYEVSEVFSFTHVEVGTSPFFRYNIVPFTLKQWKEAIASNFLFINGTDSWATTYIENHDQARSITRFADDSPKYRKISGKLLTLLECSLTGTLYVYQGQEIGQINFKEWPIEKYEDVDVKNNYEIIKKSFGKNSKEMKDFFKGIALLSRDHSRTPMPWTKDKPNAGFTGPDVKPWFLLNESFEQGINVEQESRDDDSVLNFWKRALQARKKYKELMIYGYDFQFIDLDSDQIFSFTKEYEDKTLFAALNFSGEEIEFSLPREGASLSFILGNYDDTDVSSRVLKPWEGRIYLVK

As to TEDELQDKIHPF [β-casein f(41–52)], the “Bioactivity: Anti-microbial” value in experiment [1] is on record as “Anti-microbial”.
For the compound “LPLP (UniProt P02666 150-153, looked up, fragment) [β-casein f(135–138)]”, in experiment [2], the “Bioactivity: ACE-inhibition” value is “ACE-inhibition” and the “IC50 values against ACE” value is on record as “low”. Besides, the “effect on systolic blood pressure” value in [3] was “powerful decreasing agents of systolic blood pressure”.
Turning to “EMPFPK (UniProt P02666 123-128, looked up, fragment) [β-casein f(108–113)]”, the “Bioactivity: ACE-inhibition” value in experiment [2] was “ACE-inhibition”. Further, the “Bioactivity: Anti-microbial” value in [1] was “Anti-microbial”.
Consider YLEQLLR [αS1-casein f(94–100)], for which the “Bioactivity: Anti-microbial” value in experiment [1] is “Anti-microbial”.
VVVPPF [VVVPPF]: in [4], the inhibition at 1000 µM was 22.5 ± 1% and the IC50 is above 1000 µM. This compound also yielded an IC50 in experiment [5] of 610 ± 13.6 µM.
For the compound `CC(C)C[C@H](N)C(=O)N1CCC[C@H]1C(=O)N1CCC[C@H]1C(=O)N[C@H](C(=O)O)[C@@H](C)O` [LPPT] (H-LPPT-OH), 495.3 ± 3.6 µM corresponded to half-maximal inhibition in experiment [5] (IC50).
With YQGPIVLNPWDQVKR [αS2-casein f(100–114)], the “Bioactivity: ACE-inhibition” value in [2] is given as “ACE-inhibition”. The “Bioactivity: Anti-microbial” value in experiment [1] is “Anti-microbial”. The “Bioactivity: Immunomodulation” value in experiment [6] is listed as “Immunomodulation”.
Turning to `O=C(O)[C@H](Cc1ccccc1)NC(=O)[C@@H]1CCCN1C(=O)[C@@H]1CCCN1` [PPF] (H-Pro-Pro-Phe-OH), in [4], the inhibition at 1000 µM came out at 8.8 ± 1.3% and the IC50 was above 1000 µM. The compound further registered an IC50 in experiment [5] of 142 ± 1.7 µM.
For YQEPVLGPVRGPFPIIV [β-casein f(193–209)], the “Bioactivity: ACE-inhibition” value in experiment [2] was “ACE-inhibition”. Further, the “Bioactivity: Anti-microbial” value in experiment [1] was “Anti-microbial”.
With `CC[C@H](C)[C@H](N)C(=O)N1CCC[C@H]1C(=O)N1CCC[C@H]1C(=O)O` [IPP], the IC50 in experiment [7] was 763 ± 18.9 µM; in experiment [4] it was 765 ± 15 µM; in experiment [5] it was 169 ± 2.2 µM.
As for “QEPV (UniProt P02666 209-212, looked up, fragment) [β-casein f(194–197)]”, in [6], the “Bioactivity: Immunomodulation” value was “Immunomodulation”.
In experiment [5], APFPE [APFPE] came in with an IC50 of 49.5 ± 0.5 µM.
VVPPF [VVPPF]: in [4], the inhibition at 1000 µM came out at 22 ± 1.3% and the 50% inhibitory concentration (IC50) is above 1000 µM. This compound returned an IC50 in experiment [5] of 699 ± 11.1 µM.
With TKVIPYVRYL [αS2-casein f(198–207)], the “Bioactivity: Anti-microbial” value in experiment [1] is reported as “Anti-microbial”.
For the compound “RPKHPIKHQGLPQEVLNENLLRF [αS1-casein f(1–23), anti-microbial peptide isracidin]”, the “Bioactivity: Anti-microbial” value in experiment [1] is recorded as “Anti-microbial”. In experiment [6], the “Bioactivity: Immunomodulation” value is on record as “Immunomodulation”. Further, the “in vivo anti-microbial effect” value in experiment [8] was “protecting mice”.
With “IPPL (UniProt P02666 89-92, looked up, fragment) [β-casein f(74–77)]”, in [9], the “Bioactivity: DPP-IV-inhibition” value is given as “DPP-IV-inhibition” and the IC50 is 429 µM.
Regarding “PGPIPN (UniProt P02666 78-83, looked up, fragment) [β-casein f(63–68)]”, the “Bioactivity: ACE-inhibition” value in experiment [2] is recorded as “ACE-inhibition”. Also, the “Bioactivity: Anti-inflammatory” value in [10] is reported as “Anti-inflammatory”. Moreover, the “Bioactivity: Immunomodulation” value in experiment [6] is “Immunomodulation”.
LPQ: in experiment [9], the “Bioactivity: DPP-IV-inhibition” value was “DPP-IV-inhibition” and the half-maximal inhibitory concentration (IC50) is 82 µM.
In the case of VPP, in [2], the “Bioactivity: ACE-inhibition” value was “ACE-inhibition” and the “IC50 values against ACE” value was “very low”. Also, the “Bioactivity: Antioxidant” value in experiment [11] is recorded as “Antioxidant”. The “Bioactivity: Anti-inflammatory” value in [10] was “Anti-inflammatory”. Also, the “in vivo anti-hypertensive effect” value in experiment [12] is “anti-hypertensive effect”.
Take “LLY (UniProt P02666 206-208, looked up, fragment) [β-casein f(191–193)]”: in [11], the “Bioactivity: Antioxidant” value is on record as “Antioxidant”. The “Bioactivity: Anti-inflammatory” value in [10] is “Anti-inflammatory”. Moreover, the “Bioactivity: Immunomodulation” value in [6] is recorded as “Immunomodulation”.
Take “PFP (UniProt P02666 76-78, looked up, fragment) [β-casein f(61–63)]”: in experiment [13] (ref BIOPEP database and Milk Bioactive Peptides Database), the “Bioactivity: α-glucosidase inhibition” value is listed as “α-glucosidase inhibition”. Further, the IC50 in [13] (ref [53], read-out: IC50 α-glucosidase, previously reported) is 8600 µM. Moreover, the “Bioactivity: ACE-inhibition” value in [2] is “ACE-inhibition”.
IPPLTQTPV [β-casein f(74–82)]: in [9], the “Bioactivity: DPP-IV-inhibition” value is given as “DPP-IV-inhibition” and the IC50 is 465 µM.
Take “GTQY (UniProt P02662 185-187, looked up, fragment) [αS1-casein f(170–172)]”: the “Bioactivity: ACE-inhibition” value in experiment [2] is given as “ACE-inhibition”. The “Bioactivity: Antioxidant” value in [11] was “Antioxidant”.
Take “WIQP (UniProt P02663 208-211, looked up, fragment) [αS2-casein f(193–196)]”: in [9], the “Bioactivity: DPP-IV-inhibition” value was “DPP-IV-inhibition” and the IC50 is 237 µM. Moreover, the “Bioactivity: ACE-inhibition” value in experiment [2] is given as “ACE-inhibition”.
On to “YLGY (UniProt P02662 106-109, looked up, fragment) [αS1-casein f(91–94)]”, for which the “Bioactivity: ACE-inhibition” value in experiment [2] is “ACE-inhibition”. The “Bioactivity: Antioxidant” value in experiment [11] was “Antioxidant”.
As for “YLG (UniProt P02662 106-108, looked up, fragment) [αS1-casein f(91–93)]”, the “Bioactivity: Antioxidant” value in experiment [11] was “Antioxidant”.
In the case of “LHLPLP (UniProt P02666 148-153, looked up, fragment) [β-casein f(133–138)]”, in [2], the “Bioactivity: ACE-inhibition” value is reported as “ACE-inhibition” and the “IC50 values against ACE” value is listed as “low”. Besides, the “effect on systolic blood pressure” value in experiment [3] is reported as “powerful decreasing agents of systolic blood pressure”.
